Data from patent US20260294810A1, “IONIZABLE LIPID COMPOUND, LIPID CARRIER COMPRISING SAME, AND APPLICATION” (INNOVEC BIOTHERAPEUTICS, priority 2023, published 2026).

Legend:
Luc-eGFP mRNA = assay: Determination of encapsulation efficiency of mRNAs (Quant-iT RiboGreen RNA kit); format: physicochemical
Method: (§1) In this example, the total lipid phase concentration of 1 mg/mL was formulated in anhydrous ethanol at the molar ratio of ionizable lipid (Compound 1, Compound 11 or Compound 12):helper lipid (DSPC or DOPE):cholesterol:DMG-PEG2000=50%:10%:38.5%:1.5%. Luc-eGFP mRNA at the corresponding concentration was dissolved in 50 mM citric acid buffer with an aqueous buffer solution of pH4.0. The mass ratio of mRNA to the total lipids was 1:30.
(§2) LNPs were prepared using the formulation-screening chip from Micro & Nano at a total flow rate of 12 ml/min and a flow rate ratio of 1:3 between the lipid phase and the aqueous phase. The lipid nanoparticles were collected and dialyzed with PBS overnight at 4° C. to remove ethanol and acidic buffer salts. The dialysate volume was 400 times or more the sample volume. The dialyzed sample was filtered through a 0.2-μm filter membrane. Lipid nanoparticles could also be prepared by other methods, such as injection mixing, in addition to using microfluidic chips. After being dialyzed and filtered, the sample was concentrated using a 10 kDa cellulose ultrafiltration membrane. The centrifugation parameter was 1000 g to 2000 g, and the centrifugation time was 30 min to 1 hour. The centrifugation temperature was 4° C.
For mRNA-encapsulated lipid nanoparticles, the assay specified in the Quant-iT™ RiboGreen® RNA kit could be employed. The specific operations were as follows: The sample was diluted 10 to 20 folds with a TE buffer solution (10 mM Tris-HCl, 1 mM EDTA, pH 7.5). An equal volume of demulsifier (2% Triton X-100) was added to the sample to be tested and then the solution was diluted 10 to 20 folds again. The RiboGreen® reagent was diluted 100 folds in the TE buffer solution, and 100 μl of the diluted solution was added to a 96-well plate. 100 μl of the sample to be tested was added to the corresponding 96-well plate. Meanwhile, a standard curve was plotted using the mRNA standard. The fluorescence value at 520 nm excited by 480 nm excitation light was read using a microplate reader. The concentrations of the encapsulated and free mRNAs were calculated based on the standard curve.
(§3) The nucleic acid delivery efficiency of lipid nanoparticles was characterized by observing the fluorescence expression in mice. The lipid nanoparticles were prepared at a molar ratio of ionizable lipid (Compound 17, Compound 15, Compound 18, Compound 2 or MC3):DSPC:cholesterol:DSPE-PEG2000=50%:10%:39.5%:0.5%. Female C57/BL6 mice weighing 18 to 22 g were selected. After acclimation, the Luc-eGFP mRNA-encapsulated lipid nanoparticles were injected subretinally into mice (both eyes) at a dose of 0.9 μg (±10%) mRNA (1 μl, in a sterile PBS solution) per eye. In order to observe the expression of luciferase, the luciferase substrate was dissolved into a sterile PBS solution and prepared into a solution at a concentration of 30 mg/ml.

[1] = Determination of particle size and polydispersity index of lipid nanoparticles (Malvern particle size analyzer); format: physicochemical
Method: as §1, §2
2. Determination of particle size: The particle size and polydispersity index (PDI) of the prepared lipid nanoparticles were measured using a Malvern particle size analyzer.
as §3

luciferase [2] = assay: Subretinal injection in mice, chemiluminescence from Luc-eGFP mRNA delivered by lipid nanoparticles; format: in vivo, Female C57/BL6 mice; conditions: LNP ionizable lipid:DSPC:cholesterol:DSPE-PEG2000 = 50:10:39.5:0.5, both eyes, 0.9 μg (±10%) mRNA per eye
Method: as §3
(§4) Imaging in mice: 18 hours after drug administration, 150 μl of luciferase substrate solution was injected intraperitoneally into each mouse. The mice were allowed to stand for 5 min, and then anesthetized for 3 min in a carbon dioxide box. After anesthesia, the mice were put in a small animal in vivo imager for imaging.

luciferase [3] = assay: In vivo delivery of luciferase mRNA in animals, tail vein injection, chemiluminescence imaging; set-up: species or system Female C57/BL6 mice; conditions: Luc-eGFP mRNA 0.5 mg/kg, mice, 6 h after injection
Method: as §1
The nucleic acid delivery efficiency of lipid nanoparticles was characterized by observing the fluorescence expression in mice. The Luc-eGFP mRNA-encapsulated lipid nanoparticles prepared in Example 9 were injected at a certain dose into mice via the tail vein. Female C57/BL6 mice weighing 18 to 22 g were randomly grouped, with two mice in each group. After acclimation, Luc-eGFP mRNA-encapsulated LNPs (in a sterile PBS solution) were injected via the tail vein at a dose of 0.5 mg/kg (0.5 mg here referring to the dose of mRNA). In order to observe the expression of luciferase, the luciferase substrate was dissolved into a sterile PBS solution and prepared into a solution at a concentration of 30 mg/ml.
as §4, with “Six” for “Imaging in mice: 18”, “injection of LNPs,” for “drug administration,”, “ul” for “μl”

[4] = LNP ionizable lipid:DSPC:cholesterol:DSPE-PEG2000 = 50:10:39.5:0.5, Luc-eGFP mRNA
[5] = LNP with helper lipid DSPC, ionizable lipid:helper lipid:cholesterol:DMG-PEG2000 = 50:10:38.5:1.5, Luc-eGFP mRNA:total lipids 1:30
[6] = LNP with helper lipid DOPE, ionizable lipid:helper lipid:cholesterol:DMG-PEG2000 = 50:10:38.5:1.5, Luc-eGFP mRNA:total lipids 1:30

Structure (SMILES): CCCCCCCCCOC(=O)CCCCCCCN(CCCCCCCC(=O)OC(CCCCCCCC)CCCCCCCC)CCOC(=O)NCCN(CC)CC [Compound 18]
- Nucleic Acid Encapsulation Efficiency (Luc-eGFP mRNA; [4]): 96.0%
- PDI [1, 4]: 0.14
- Particle Size [1, 4]: 121.7 nm
- Luminous Intensity 18 h (luciferase [2]): 1E+7 p/s/cm^2/sr

Structure (SMILES): CCCCCCCCC(C)C(=O)OCCCCCCN(CCCCCCOC(=O)C(CCCCCC)CCCCCCCC)CCOC(=O)NCCN(CC)CC (stereo not shown) [Compound 11]
- Nucleic Acid Encapsulation Efficiency (Luc-eGFP mRNA; [5]): 97.13%
- PDI [1, 5]: 0.215
- Particle Size [1, 5]: 96.88 nm
- Luminous Intensity 6 h (luciferase [3]; LNP with helper lipid DSPC): 7.2E+7 p/s/cm^2/sr

Structure (SMILES): CCCCCCCCCOC(=O)CCCCCCCN(CCCCCCCC(=O)OC(CCCCCCCC)CCCCCCCC)CCOC(=O)NCCN(C)CC [Compound 15]
- Nucleic Acid Encapsulation Efficiency (Luc-eGFP mRNA; [4]): 98.2%
- PDI [1, 4]: 0.22
- Particle Size [1, 4]: 149.7 nm
- Luminous Intensity 18 h (luciferase [2]): 2.6E+7 p/s/cm^2/sr

Structure (SMILES): CCCCCCCCC(CCCC)C(=O)OCCCCCCN(CCCCCCOC(=O)C(CCCCCC)CCCCCCCC)CCOC(=O)NCCN(CC)CC (stereo not shown) [Compound 12]
- Nucleic Acid Encapsulation Efficiency (Luc-eGFP mRNA; [5]): 97.58%
- PDI [1, 5]: 0.22
- Particle Size [1, 5]: 123 nm
- Luminous Intensity 6 h (luciferase [3]; LNP with helper lipid DSPC): 3.1E+8 p/s/cm^2/sr

Structure (SMILES): CCCCCCCCC(CCCCCC)C(=O)OCCCCCCN(CCCCCCOC(=O)C(CCCCCC)CCCCCCCC)CCOC(=O)NCCN(C)CC (stereo not shown) [Compound 2]
- Nucleic Acid Encapsulation Efficiency (Luc-eGFP mRNA; [4]): 99.3%
- PDI [1, 4]: 0.19
- Particle Size [1, 4]: 147.2 nm
- Luminous Intensity 18 h (luciferase [2]): 2E+8 p/s/cm^2/sr

Structure (SMILES): CCCCCCCCC(CCCCCC)C(=O)OCCCCCCN(CCCCCCOC(=O)C(CCCCCC)CCCCCCCC)CCOC(=O)NCCN(CC)CC (stereo not shown) [Compound 1]
- Nucleic Acid Encapsulation Efficiency (Luc-eGFP mRNA; [6]): 95.42%
- Nucleic Acid Encapsulation Efficiency (Luc-eGFP mRNA; [5]): 93.01%
- PDI [1, 6]: 0.082
- Particle Size [1, 6]: 99.86 nm
- PDI [1, 5]: 0.135
- Particle Size [1, 5]: 111.7 nm
- Luminous Intensity 6 h (luciferase [3]; LNP with helper lipid DOPE): 1.6E+9 p/s/cm^2/sr
- Luminous Intensity 6 h (luciferase [3]; LNP with helper lipid DSPC): 3.4E+8 p/s/cm^2/sr

Structure (SMILES): CCCCC/C=C\C/C=C\CCCCCCCCC(CCCCCCCC/C=C\C/C=C\CCCCC)OC(=O)CCCN(C)C [MC3, DLin-MC3-DMA, reference compound]
- Nucleic Acid Encapsulation Efficiency (Luc-eGFP mRNA; [4]): 96.6%
- PDI [1, 4]: 0.24
- Particle Size [1, 4]: 149.0 nm
- Luminous Intensity 18 h (luciferase [2]): 5E+6 p/s/cm^2/sr
- Luminous Intensity 6 h (luciferase [3]; LNP with helper lipid DSPC): 1.35E+8 p/s/cm^2/sr

Structure (SMILES): CCCCCCCCCOC(=O)CCCCCCCN(CCCCCCCC(=O)OC(CCCCCCCC)CCCCCCCC)CCOC(=O)NCCCN(C)C [Compound 17]
- Nucleic Acid Encapsulation Efficiency (Luc-eGFP mRNA; [4]): 99.4%
- PDI [1, 4]: 0.36
- Particle Size [1, 4]: 90.31 nm
- Luminous Intensity 18 h (luciferase [2]): 3.4E+8 p/s/cm^2/sr
